The results in this text go back to PubChem BioAssay AID292 (DTP/NCI, 2004).

The experiment has as its system B6C3F1 mice, ip Sarcoma M5076, median survival T/C. The experiment can be described thus: NCI In Vivo Anticancer Drug Screen. Data for tumor model Sarcoma M5076 (intraperitoneal) in B6C3F1 mice. Particulars: endpoint: median survival time, schedule: Q04DX004 (ip), higher = longer survival. An outline of the steps:
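Tumour cells were transplanted into mice, compound or vehicle was given, survival of both groups was followed, and the treated figure was expressed over the control figure.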

[1] abbreviates: dose: 25.0 mg/kg/injection, vehicle: Klucel (hydroxypropylcellulose) (HPC).
Setting [2] is: dose: 50.0 mg/kg/injection, vehicle: saline with Tween-80.
Setting [3] is: dose: 100.0 mg/kg/injection, vehicle: saline with Tween-80.
Setting [4] is: dose: 25.0 mg/kg/injection, vehicle: saline.
The mark [5] stands for this setting: dose: 50.0 mg/kg/injection, vehicle: saline.
Setting [6] is: dose: 100.0 mg/kg/injection, vehicle: saline.
[7] abbreviates: dose: 37.5 mg/kg/injection, vehicle: saline with Tween-80.
[8] abbreviates: dose: 75.0 mg/kg/injection, vehicle: saline with Tween-80.
The mark [9] stands for this setting: dose: 100.0 mg/kg/injection, vehicle: Klucel (hydroxypropylcellulose) (HPC).

Several values for one entry are separate records, joined by “and”; a condition that tells them apart may be missing. Equal entries are not always repeated. Toxic doses and inconclusive results are not listed.

Turning to `CC1=CC(C)C(O)C(C)/C=C/C(O)C/C=C(/C)C(=O)CC(O)C(C)\C=C/C=C/C=C\C(=O)NC2=C(O)c3cc(C)c(O)c(c3C(=O)C2=O)C1=O` (centres undefined), the T/C was 109 % of control (dose: 1.25 mg/kg/injection, vehicle: Klucel (hydroxypropylcellulose) (HPC)); 97 % of control (dose: 2.5 mg/kg/injection, vehicle: Klucel (hydroxypropylcellulose) (HPC)); 102 % of control (dose: 5.0 mg/kg/injection, vehicle: Klucel (hydroxypropylcellulose) (HPC)); 102 % of control (dose: 10.0 mg/kg/injection, vehicle: Klucel (hydroxypropylcellulose) (HPC)); 98 % of control under setting [1].

Take `C=CCNC(=O)c1ccccc1SC(C)=O`: the T/C under setting [2] was 103 % of control; the T/C under setting [3] is 96 % of control; the T/C (dose: 200.0 mg/kg/injection, vehicle: saline with Tween-80) was 90 % of control; the T/C (dose: 400.0 mg/kg/injection, vehicle: saline with Tween-80) is 103 % of control.

Turning to `NNC(=O)c1ccncc1`, the T/C was 102 % of control under setting [4]; 102 % of control under setting [5]; 95 % of control under setting [6]; 106 % of control (dose: 200.0 mg/kg/injection, vehicle: saline).

Take `O=S1(=O)C(c2cccc(F)c2)=C(O)c2cc3ccccc3nc21`: the T/C (dose: 26.57 mg/kg/injection, vehicle: saline with Tween-80) was 100 % of control; the T/C (dose: 53.13 mg/kg/injection, vehicle: saline with Tween-80) is 92 % of control; the T/C (dose: 106.25 mg/kg/injection, vehicle: saline with Tween-80) was 96 % of control; the T/C (dose: 212.5 mg/kg/injection, vehicle: saline with Tween-80) is 92 % of control.

As to `CN1CCN(c2c(C(=O)Nc3ccc([N+](=O)[O-])cc3)cc([N+](=O)[O-])cc2[N+](=O)[O-])CC1`, the T/C reads like this: under setting [7], 96 % of control; under setting [8], 91 % of control.

For `CNNCc1ccc(C(=O)NC(C)C)cc1`, the T/C (dose: 22.0 mg/kg/injection, vehicle: saline) was 119 % of control; the T/C (dose: 88.0 mg/kg/injection, vehicle: saline) was 152 % of control; the T/C (dose: 352.0 mg/kg/injection, vehicle: saline) is 152 % of control.

In the case of `COC(=O)[C@@]12OC[C@]34[C@H]([C@@H](O)[C@@H]1O)[C@@]1(C)CC(=O)C(OC(=O)CC(=O)OC5=C(C)[C@@H]6C[C@H]7OC(=O)[C@H](OC(=O)/C=C(\C)C(C)C)[C@H]8[C@]9(C(=O)OC)OC[C@]78[C@H]([C@@H](O)[C@@H]9O)[C@@]6(C)CC5=O)=C(C)[C@@H]1C[C@H]3OC(=O)[C@H](OC(=O)/C=C(\C)C(C)C)[C@@H]24`, the T/C runs as follows: (dose: 0.75 mg/kg/injection, vehicle: saline + Tween-80 + alcohol) 108 % of control; (dose: 1.5 mg/kg/injection, vehicle: saline + Tween-80 + alcohol) 118 % of control; (dose: 3.0 mg/kg/injection, vehicle: saline + Tween-80 + alcohol) 118 % of control; (dose: 6.0 mg/kg/injection, vehicle: saline + Tween-80 + alcohol) 112 % of control.

With `O=C(NC(Cc1ccc(I)cc1)C(=O)O)c1ccc(Br)cc1` (centres undefined), the T/C is, setting by setting: (dose: 25.0 mg/kg/injection, vehicle: sodium bicarbonate) 102 % of control; (dose: 50.0 mg/kg/injection, vehicle: sodium bicarbonate) 105 % of control; (dose: 100.0 mg/kg/injection, vehicle: sodium bicarbonate) 97 % of control; (dose: 200.0 mg/kg/injection, vehicle: sodium bicarbonate) 104 % of control; (dose: 400.0 mg/kg/injection, vehicle: sodium bicarbonate) 90 % of control.

For the compound `[Na+]`, the T/C (dose: 50.0 mg/kg/injection, vehicle: water) is 94 % of control; the T/C (dose: 100.0 mg/kg/injection, vehicle: water) is 97 % of control; the T/C (dose: 200.0 mg/kg/injection, vehicle: water) is 101 % of control; the T/C (dose: 400.0 mg/kg/injection, vehicle: water) is 88 % of control; the T/C (dose: 800.0 mg/kg/injection, vehicle: water) is 98 % of control.

For the compound `O=C1C[C@@H](c2ccccc2)NCCCCN(O)CCCN1`, the T/C runs as follows: under setting [4], 102 % of control; under setting [5], 102 % of control; under setting [6], 102 % of control.

As to `O=C(O)C1CC(O)CN1` (centres undefined), the T/C was 110 % of control (dose: 50.0 mg/kg/injection, vehicle: suspension in saline); 103 % of control (dose: 100.0 mg/kg/injection, vehicle: suspension in saline); 97 % of control (dose: 200.0 mg/kg/injection, vehicle: suspension in saline); 102 % of control (dose: 400.0 mg/kg/injection, vehicle: suspension in saline); 100 % of control (dose: 800.0 mg/kg/injection, vehicle: suspension in saline).

Take `COc1cccc2sc(-n3c(C)nc4ccccc4c3=O)nc12`: the T/C is 109 % of control (dose: 31.25 mg/kg/injection, vehicle: Klucel (hydroxypropylcellulose) (HPC)); 94 % of control (dose: 62.5 mg/kg/injection, vehicle: Klucel (hydroxypropylcellulose) (HPC)); 93 % of control (dose: 125.0 mg/kg/injection, vehicle: Klucel (hydroxypropylcellulose) (HPC)); 94 % of control (dose: 250.0 mg/kg/injection, vehicle: Klucel (hydroxypropylcellulose) (HPC)); 95 % of control (dose: 500.0 mg/kg/injection, vehicle: Klucel (hydroxypropylcellulose) (HPC)).

As to `C[C@H](N)C(=O)N[C@@H]1[C@H]2C(=C(O)C[C@@H](O)[C@@H]2O)C(=O)O[C@]1(C)C(Cl)Cl`, the T/C is, setting by setting: (dose: 2.16 mg/kg/injection, vehicle: saline) 159 % of control; (dose: 3.6 mg/kg/injection, vehicle: saline) 179 % of control; (dose: 6.0 mg/kg/injection, vehicle: saline) 152 % of control and 164 % of control; (dose: 10.0 mg/kg/injection, vehicle: saline) 235 % of control.

For `Cc1[nH]c(=O)[nH]c(=O)c1CCSSCCc1c(C)[nH]c(=O)[nH]c1=O`, the T/C reads like this: under setting [7], 90 % of control; under setting [8], 86 % of control; (dose: 150.0 mg/kg/injection, vehicle: saline with Tween-80) 89 % of control; (dose: 300.0 mg/kg/injection, vehicle: saline with Tween-80) 86 % of control; (dose: 600.0 mg/kg/injection, vehicle: saline with Tween-80) 90 % of control.

As for `O=S(=O)(c1cccc(N=C=S)c1)c1cccc(N=C=S)c1`, the T/C (dose: 12.5 mg/kg/injection, vehicle: Klucel (hydroxypropylcellulose) (HPC)) is 99 % of control; the T/C under setting [1] is 94 % of control; the T/C (dose: 50.0 mg/kg/injection, vehicle: Klucel (hydroxypropylcellulose) (HPC)) is 103 % of control; the T/C under setting [9] was 99 % of control.

Regarding `C=C(c1ccc(OC)c(OC)c1)c1nccc2cc(OC)c(OC)cc12`, the T/C by setting is: under setting [9], 102 % of control; (dose: 200.0 mg/kg/injection, vehicle: Klucel (hydroxypropylcellulose) (HPC)) 119 % of control; (dose: 400.0 mg/kg/injection, vehicle: Klucel (hydroxypropylcellulose) (HPC)) 98 % of control; (dose: 800.0 mg/kg/injection, vehicle: Klucel (hydroxypropylcellulose) (HPC)) 102 % of control.

Take `Nc1ccc2c(c1)CN1C(=O)c3ccccc3C1=N2`: the T/C is 104 % of control (dose: 25.0 mg/kg/injection, vehicle: saline with Tween-80); 110 % of control under setting [2]; 116 % of control under setting [3].
